Where two headings read alike, the source gives them in different places.

This experiment has as its target ATR kinase (full-length ATR) (Homo sapiens (Human), UniProt Q13535). Briefly: ATR inhibition assay (radioactive-phosphate incorporation). It is filed as biochemical. In short, it runs like this: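 Ki(app) was fitted by non-linear regression to background-corrected initial rates. Full-length ATR (5 nM) phosphorylated 800 μM peptide using 10 μM [γ-33P]ATP at 25° C in Tris/HCl pH 7.5 buffer with MgCl2, DTT and 7% DMSO. After 10-minute compound pre-incubation and 24-hour reaction, phosphocellulose filters were scintillation counted.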

Where [1] appears, read: Ki(app), 5 nM full-length ATR, 10 μM ATP, 25° C.

ATR kinase (full-length ATR), sequence (Q13535 whole entry): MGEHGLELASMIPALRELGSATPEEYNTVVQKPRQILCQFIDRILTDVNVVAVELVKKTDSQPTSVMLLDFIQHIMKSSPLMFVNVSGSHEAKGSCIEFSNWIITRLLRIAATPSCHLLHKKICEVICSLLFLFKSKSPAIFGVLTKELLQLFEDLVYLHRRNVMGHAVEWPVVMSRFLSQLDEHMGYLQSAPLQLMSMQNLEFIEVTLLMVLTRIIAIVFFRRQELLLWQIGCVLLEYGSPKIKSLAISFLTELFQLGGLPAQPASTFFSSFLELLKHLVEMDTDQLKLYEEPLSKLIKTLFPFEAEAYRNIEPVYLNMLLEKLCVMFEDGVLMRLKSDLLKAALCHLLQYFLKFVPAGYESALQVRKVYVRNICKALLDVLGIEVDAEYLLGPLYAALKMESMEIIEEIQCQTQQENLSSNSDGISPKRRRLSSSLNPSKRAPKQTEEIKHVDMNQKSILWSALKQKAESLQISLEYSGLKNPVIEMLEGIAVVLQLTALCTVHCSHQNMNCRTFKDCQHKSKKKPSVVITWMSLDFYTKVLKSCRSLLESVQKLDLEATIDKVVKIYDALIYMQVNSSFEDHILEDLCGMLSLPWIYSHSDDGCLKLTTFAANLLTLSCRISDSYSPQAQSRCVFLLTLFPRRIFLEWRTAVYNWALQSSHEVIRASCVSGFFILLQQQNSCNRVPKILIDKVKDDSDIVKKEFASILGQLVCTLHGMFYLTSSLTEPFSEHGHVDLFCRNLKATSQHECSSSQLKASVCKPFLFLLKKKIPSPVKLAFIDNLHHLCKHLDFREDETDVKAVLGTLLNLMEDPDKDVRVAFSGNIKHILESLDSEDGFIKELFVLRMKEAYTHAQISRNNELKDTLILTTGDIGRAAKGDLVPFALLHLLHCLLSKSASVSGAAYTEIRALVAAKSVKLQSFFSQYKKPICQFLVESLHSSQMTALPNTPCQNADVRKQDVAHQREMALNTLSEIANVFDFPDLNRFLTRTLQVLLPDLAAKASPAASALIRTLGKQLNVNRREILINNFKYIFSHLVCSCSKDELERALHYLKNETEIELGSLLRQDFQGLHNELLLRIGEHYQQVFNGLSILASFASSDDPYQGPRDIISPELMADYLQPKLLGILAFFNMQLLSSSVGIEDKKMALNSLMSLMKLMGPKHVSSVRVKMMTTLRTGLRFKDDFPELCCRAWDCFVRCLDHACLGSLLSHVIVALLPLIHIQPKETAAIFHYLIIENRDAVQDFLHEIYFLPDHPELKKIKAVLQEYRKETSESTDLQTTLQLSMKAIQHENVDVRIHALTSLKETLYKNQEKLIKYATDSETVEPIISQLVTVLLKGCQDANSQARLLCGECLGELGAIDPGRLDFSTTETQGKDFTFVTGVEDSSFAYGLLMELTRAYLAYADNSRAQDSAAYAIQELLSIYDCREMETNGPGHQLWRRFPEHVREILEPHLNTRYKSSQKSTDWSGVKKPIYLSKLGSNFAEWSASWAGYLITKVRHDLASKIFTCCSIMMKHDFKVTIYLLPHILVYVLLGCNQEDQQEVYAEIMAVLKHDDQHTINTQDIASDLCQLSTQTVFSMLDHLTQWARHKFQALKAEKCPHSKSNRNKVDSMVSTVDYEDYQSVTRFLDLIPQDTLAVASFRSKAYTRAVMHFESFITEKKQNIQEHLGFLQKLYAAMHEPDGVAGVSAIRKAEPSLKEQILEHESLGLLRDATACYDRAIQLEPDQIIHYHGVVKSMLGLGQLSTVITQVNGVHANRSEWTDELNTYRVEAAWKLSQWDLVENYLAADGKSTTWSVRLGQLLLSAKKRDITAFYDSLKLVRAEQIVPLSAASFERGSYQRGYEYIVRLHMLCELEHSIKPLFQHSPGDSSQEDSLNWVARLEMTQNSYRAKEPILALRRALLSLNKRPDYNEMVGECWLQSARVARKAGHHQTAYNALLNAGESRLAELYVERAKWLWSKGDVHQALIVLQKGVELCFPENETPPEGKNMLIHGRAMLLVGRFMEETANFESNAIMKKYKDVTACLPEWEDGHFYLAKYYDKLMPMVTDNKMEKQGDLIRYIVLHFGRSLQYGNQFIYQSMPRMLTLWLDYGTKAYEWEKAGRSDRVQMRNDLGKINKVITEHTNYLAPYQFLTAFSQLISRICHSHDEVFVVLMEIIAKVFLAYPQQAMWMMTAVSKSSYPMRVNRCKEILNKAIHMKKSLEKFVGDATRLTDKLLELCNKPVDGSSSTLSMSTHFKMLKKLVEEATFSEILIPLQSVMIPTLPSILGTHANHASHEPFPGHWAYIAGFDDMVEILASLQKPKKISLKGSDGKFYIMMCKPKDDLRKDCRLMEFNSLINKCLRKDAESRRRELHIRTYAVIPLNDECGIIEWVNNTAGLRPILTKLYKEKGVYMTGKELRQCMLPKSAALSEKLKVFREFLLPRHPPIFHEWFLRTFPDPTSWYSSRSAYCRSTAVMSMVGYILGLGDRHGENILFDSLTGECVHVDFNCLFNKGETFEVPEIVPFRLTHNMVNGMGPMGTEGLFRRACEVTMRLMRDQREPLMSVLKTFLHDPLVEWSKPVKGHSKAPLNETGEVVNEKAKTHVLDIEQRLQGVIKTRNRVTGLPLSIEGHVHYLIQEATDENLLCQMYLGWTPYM

Take `CN(C)CCOc1cc(C(F)(F)F)ncc1NC(=O)c1c(N)nn2cc(Cl)cnc12` [I-O-71, 2-amino-6-chloro-N-(4-(2-(dimethylamino)ethoxy)-6-(trifluoromethyl)pyridin-3-yl)pyrazolo[1,5-a]pyrimidine-3-carboxamide]: under setting [1], the Ki was in the range of 10 to 1000 nM. As to `Nc1nn2cc(F)cnc2c1C(=O)Nc1cnccc1N1CCC(C(=O)N2CCOCC2)CC1` [I-G-85, 2-amino-6-fluoro-N-(4-(4-(morpholine-4-carbonyl)piperidin-1-yl)pyridin-3-yl)pyrazolo[1,5-a]pyrimidine-3-carboxamide], the Ki under setting [1] lay within 10 to 1000 nM. On the same count and under the same terms, in the case of `Nc1nn2cc(F)cnc2c1C(=O)Nc1cnccc1OC1CN2CCC1CC2` (racemic) [I-O-6, (R,S)-2-amino-6-fluoro-N-(4-(quinuclidin-3-yloxy)pyridin-3-yl)pyrazolo[1,5-a]pyrimidine-3-carboxamide] it was 10 to 1000 nM. The same measure, in the same setting: the figure for `COCC1CN(c2ccncc2NC(=O)c2c(N)nn3cc(Cl)cnc23)CCN1C` (stereo not drawn) [I-N-47, 2-amino-6-chloro-N-(4-(3-(methoxymethyl)-4-methylpiperazin-1-yl)pyridin-3-yl)pyrazolo[1,5-a]pyrimidine-3-carboxamide] is 10 to 1000 nM; for `CN1C(=O)CCC12CCN(c1ccncc1NC(=O)c1c(N)nn3cc(F)cnc13)CC2` [I-N-235, 2-amino-6-fluoro-N-(4-(1-methyl-2-oxo-1,8-diazaspiro[4.5]decan-8-yl)pyridin-3-yl)pyrazolo[1,5-a]pyrimidine-3-carboxamide] it is 10 to 1000 nM.

Take `Nc1nn2cc(F)cnc2c1C(=O)Nc1cncc(F)c1N1CCC(C(=O)N2CC(O)C2)CC1` [I-G-41, 2-amino-6-fluoro-N-(5-fluoro-4-(4-(3-hydroxyazetidine-1-carbonyl)piperidin-1-yl)pyridin-3-yl)pyrazolo[1,5-a]pyrimidine-3-carboxamide]: the Ki was in the range of 1000 to 5000 nM. `Nc1nn2cc(F)cnc2c1C(=O)Nc1cncc(Cl)c1N1CCCC1` [I-N-281, 2-amino-N-(5-chloro-4-(pyrrolidin-1-yl)pyridin-3-yl)-6-fluoropyrazolo[1,5-a]pyrimidine-3-carboxamide]: the Ki under setting [1] lay within 10 to 1000 nM. As for `C[C@@H]1CN(C(=O)C2CCN(c3c(F)cncc3NC(=O)c3c(N)nn4cc(F)cnc34)CC2)CCN1` [I-G-45, (R)-2-amino-6-fluoro-N-(5-fluoro-4-(4-(3-methylpiperazine-1-carbonyl)piperidin-1-yl)pyridin-3-yl)pyrazolo[1,5-a]pyrimidine-3-carboxamide], the Ki under setting [1] was in the range of 10 to 1000 nM.

For `CN1CCN(c2c(F)cncc2NC(=O)c2c(N)nn3cc(F)cnc23)CC1` [I-N-15, 2-amino-6-fluoro-N-(5-fluoro-4-(4-methylpiperazin-1-yl)pyridin-3-yl)pyrazolo[1,5-a]pyrimidine-3-carboxamide], under setting [1], the Ki lay within 10 to 1000 nM. Still for that read-out and setting: the figure for `Nc1nn2cc(F)cnc2c1C(=O)Nc1cnccc1N1CCS(=O)(=O)CC1` [I-N-210, 2-amino-N-(4-(1,1-dioxidothiomorpholino)pyridin-3-yl)-6-fluoropyrazolo[1,5-a]pyrimidine-3-carboxamide] is 10 to 1000 nM; for `N#C[C@@H]1CCN(c2c(Cl)cncc2NC(=O)c2c(N)nn3cc(F)cnc23)C1` [I-N-285, (R)-2-amino-N-(5-chloro-4-(3-cyanopyrrolidin-1-yl)pyridin-3-yl)-6-fluoropyrazolo[1,5-a]pyrimidine-3-carboxamide] it is 10 to 1000 nM; for `Nc1nn2cc(Cl)cnc2c1C(=O)Nc1cnccc1N1CCn2ccnc2C1` [I-N-44, 2-amino-6-chloro-N-(4-(5,6-dihydroimidazo[1,2-a]pyrazin-7(8H)-yl)pyridin-3-yl)pyrazolo[1,5-a]pyrimidine-3-carboxamide] it is 10 to 1000 nM. With `CN(C)C(=O)C1CN(c2ccncc2NC(=O)c2c(N)nn3cc(F)cnc23)CCO1` (stereo not drawn) [I-N-234, 4-(3-(2-amino-6-fluoropyrazolo[1,5-a]pyrimidine-3-carboxamido)pyridin-4-yl)-N,N-dimethylmorpholine-2-carboxamide], the Ki under setting [1] was in the range of 10 to 1000 nM. Still for that read-out and setting: the figure for `Cc1ncn(C)c1-c1ccncc1NC(=O)c1c(N)nn2cc(F)cnc12` [I-C-78, 2-amino-N-(4-(1,4-dimethyl-1H-imidazol-5-yl)pyridin-3-yl)-6-fluoropyrazolo[1,5-a]pyrimidine-3-carboxamide] is 10 to 1000 nM. Still for that read-out and setting: the figure for `Nc1nn2cc(F)cnc2c1C(=O)Nc1cnccc1-c1ccc(C(=O)N2CCC(N3CCC3)CC2)nc1` [I-C-54, 2-amino-N-(6-(4-(azetidin-1-yl)piperidine-1-carbonyl)-[3,4′-bipyridin]-3′-yl)-6-fluoropyrazolo[1,5-a]pyrimidine-3-carboxamide] is 10 to 1000 nM.

Take `CN1CCC(c2c(F)cncc2NC(=O)c2c(N)nn3cc(F)cnc23)CC1` [I-C-14, 2-amino-6-fluoro-N-(5-fluoro-4-(1-methylpiperidin-4-yl)pyridin-3-yl)pyrazolo[1,5-a]pyrimidine-3-carboxamide]: the Ki fell in the range of 1000 to 5000 nM. In the case of `CS(=O)(=O)CC1CCN(c2ccncc2NC(=O)c2c(N)nn3cc(F)cnc23)CC1` [I-N-215, 2-amino-6-fluoro-N-(4-(4-((methylsulfonyl)methyl)piperidin-1-yl)pyridin-3-yl)pyrazolo[1,5-a]pyrimidine-3-carboxamide], the Ki under setting [1] is 10 to 1000 nM. Same read-out and setting: the figure for `CN(C)C1CCN(C2CCN(c3ccncc3NC(=O)c3c(N)nn4cc(Cl)cnc34)CC2)C1` (stereo not drawn) [I-N-106, 2-amino-6-chloro-N-(4-(4-(3-(dimethylamino)pyrrolidin-1-yl)piperidin-1-yl)pyridin-3-yl)pyrazolo[1,5-a]pyrimidine-3-carboxamide] is 10 to 1000 nM; for `Cn1ccc(-c2ccncc2NC(=O)c2c(N)nn3cc(F)cnc23)n1` [I-C-68, 2-amino-6-fluoro-N-(4-(1-methyl-1H-pyrazol-3-yl)pyridin-3-yl)pyrazolo[1,5-a]pyrimidine-3-carboxamide] it is 10 to 1000 nM. On the same count and under the same terms, the figure for `Nc1nn2cc(F)cnc2c1C(=O)Nc1cnccc1N1CCC(C(=O)N2CCCC2)CC1` [I-G-83, 2-amino-6-fluoro-N-(4-(4-(pyrrolidine-1-carbonyl)piperidin-1-yl)pyridin-3-yl)pyrazolo[1,5-a]pyrimidine-3-carboxamide] is 10 to 1000 nM; for `Nc1nn2cc(F)cnc2c1C(=O)Nc1cnccc1C1CCN(S(=O)(=O)C2CC2)CC1` [I-C-47, 2-amino-N-(4-(1-(cyclopropylsulfonyl)piperidin-4-yl)pyridin-3-yl)-6-fluoropyrazolo[1,5-a]pyrimidine-3-carboxamide] it is 10 to 1000 nM. Still for that read-out and setting: in the case of `Nc1nn2cc(F)cnc2c1C(=O)Nc1cncc(F)c1N1CCN(S(=O)(=O)C2CC2)CC1` [I-N-159, 2-amino-N-(4-(4-(cyclopropylsulfonyl)piperazin-1-yl)-5-fluoropyridin-3-yl)-6-fluoropyrazolo[1,5-a]pyrimidine-3-carboxamide] it was 10 to 1000 nM. In the case of `CN1CCC(Oc2c(Cl)cncc2NC(=O)c2c(N)nn3cc(Cl)cnc23)CC1` [I-O-46, 2-amino-6-chloro-N-(5-chloro-4-((1-methylpiperidin-4-yl)oxy)pyridin-3-yl)pyrazolo[1,5-a]pyrimidine-3-carboxamide], the Ki was in the range of 1000 to 5000 nM. Same read-out and setting: in the case of `Cc1ccncc1NC(=O)c1c(N)nn2cc(Cl)cnc12` [I-C-2, 2-amino-6-chloro-N-(4-methylpyridin-3-yl)pyrazolo[1,5-a]pyrimidine-3-carboxamide] it was 1000 to 5000 nM.

Source of the values: patent US10392391B2 (Vertex Pharmaceuticals Incorporated, priority 2012, dated 2019).
